Common to all, as to assay type: in vivo
In experiment [1] the test system is NMRI mouse. Description: Abdominal contractions induced by phenyl-p-benzoquinone (PBQ) in the NMRI mouse. Particulars: IP, PBQ at t=30 min, cramps counted t=35-45 min. The method, then: Abdominal Contractions Induced by Phenyl-p-Benzoquinone (PBQ) in the NMRI Mouse
Intraperitoneal administration of an alcoholic solution of PBQ causes abdominal cramps in the mouse (SIEGNUND et al., Proc. Soc. Exp. Biol., 1957, 95, 729-731). The cramps are characterized by repeated contractions of the abdominal musculature, accompanied by extension of the hind limbs. Most analgesics antagonise these abdominal cramps (COLLIER et al., Brit. J. Pharmacol. Chem., 1968, 32, 295-310). At t=0 min., the animals are weight and the compound being studied is administered by the IP route. A group of contol animals is given the solvent used for the compound. At t=30 min., an alcoholic solution of PBQ (0.2%) is administered by the IP route in a volume of 0.25 ml/mouse. Immediately after administration of the PBQ, the animals are placed in cylinders of plexiglass (L=19.5 cm; I.D.=5 cm). From t=35 min. to t=45 min., the animals' reaction is observed and the experimenter notes the total number of abdominal cramps per animal. The Table hereinbelow gives the percentage inhibition of the number of abdominal cramps measured in the control animals, at the active dose of the compound studied.

The test system of experiment [2] is Wistar rat. Description: Social recognition in the Wistar rat. As to conditions: intraperitoneal route, dose 3 mg/kg, second encounter after 2 hours. The source says: Social Recognition in the Wistar Rat
Initially described in 1982 by THOR and HOLLOWAY, (J. Comp. Physiol., 1982, 96, 1000-1006), the social recognition test has subsequently been proposed by various authors (DANTZER et al., Psychopharmacology, 1987, 91, 363-368; PERIO et al., Psycho-pharmacology, 1989, 97, 262-268) for studying the mnemocognitive effects of new compounds. The test is based on the natural expression of the olfactory memory of the rat and its natural tendency to forget and allows evaluation of memorisation, by recognition of a young congeneric animal, by an adult rat. A young rat (21 days), taken at random, is placed for 5 minutes in the cage housing an adult rat. With the aid of a video device, the experimenter observes the social recognition behaviour of the adult rat and measures its overall duration. The young rat is then removed from the adult rat's cage and is placed in its own cage until the second introduction. The adult rat is given the compound under test by intraperitoneal route and, after 2 hours, is again brought into the presence (5 minutes) of the young rat. The social recognition behaviour is then observed again and its duration measured.
The Table hereinbelow gives the difference (T2—T1), expressed in seconds, between the “recognition” times of the 2 encounters.

For experiment [3], the system named is Wistar rat. Description: Object recognition in the Wistar rat. Particulars: 30 minutes before each session, 24 hours between sessions. The source says:
Object Recognition in the Wistar Rat
The object recognition test in the Wistar rat was initially developed by ENNACEUR and DELACOUR (Behav. Brain Res., 1988, 31, 47-59). The test is based on the spontaneous exploratory activity of the animal and has he characteristics of episodic memory in humans. This memory test is sensitive to ageing (SCALI et al., Eur. J. Pharmacol., 1997, 325, 173-180) and to cholinergic dysfunctions (BARTOLINI et al., Pharm. Biochem. Behav. 1996, 53(2), 277-283) and is based on the differences in the exploration of 2 objects of fairly similar shape—one familiar, the other new. Prior to the test, the animals are habituated to the environment (an enclosure without an object). In the course of a first session, the rats are placed (3 minutes) in the enclosure, in which there are 2 identical objects. The duration of exploration is measured for each object. In the course of the second session (3 minutes), 24 hours later, 1 of the 2 objects is replaced by a new object. The duration of exploration is measured for each object. The assessment criterion is the difference, Delta, expressed in seconds, between the exploration times for the new object and for the familiar object in the course of the second session.
The Table hereinbelow gives the difference, Delta, expressed in seconds, between the exploration times of the 2 objects.

`CC1=CC(=O)CC(c2cccc(Cl)c2)N1` (racemic) [Example 1, (±)-2-(3-Chlorophenyl)-6-methyl-2,3-dihydro-4(1H)-pyridinone]: the “Inhibition (%) of the number of abdominal cramps” value (“Inhibition (%)” for short) in experiment [1] (dose 10 mg/kg) was determined as 51%. The “T2 − T1 (s), difference between the recognition times of the 2 encounters” value in experiment [2] is -36 s. The “Delta (s), difference between exploration times for new and familiar object” value in experiment [3] (dose 0.3 mg/kg, i.p.) worked out at 7.5 s; in experiment [3] (dose 0.3 mg/kg, p.o.), 9.95 s.

On to `CC1=CC(=O)CC(c2ccc(Cl)cc2)N1` (racemic) [Example 24, (±)-2-(4-Chlorophenyl)-6-methyl-2,3-dihydro-4(1H)-pyridinone], for which the “T2 − T1 (s), difference between the recognition times of the 2 encounters” value in experiment [2] was -32 s. Moreover, the “Delta (s), difference between exploration times for new and familiar object” value in experiment [3] (dose 3 mg/kg, i.p.) was 7.55 s.

For the compound `CC1=CC(=O)CC(c2ccc(Cl)cc2)CN1` (racemic) [Example 25, (±)-6-(4-Chlorophenyl)-2-methyl-1,5,6,7-tetrahydro-4H-azepin-4-one], in experiment [1] (dose 20 mg/kg), the “Inhibition (%)” value stood at 69%.

In the case of `CC1=CC(=O)CC(c2ccc(Cl)c(Cl)c2)N1` (racemic) [Example 26, (±)-2-(3,4-Dichlorophenyl)-6-methyl-2,3-dihydro-4(1H)-pyridinone], in experiment [1] (dose 10 mg/kg), the “Inhibition (%)” value was determined as 55%.

`COc1cccc(C2CC(=O)C=C(C)N2)c1` (racemic) [Example 27, (±)-2-(3-Methoxyphenyl)-6-methyl-2,3-dihydro-4(1H)-pyridinone]: the “Delta (s), difference between exploration times for new and familiar object” value in experiment [3] (dose 3 mg/kg, i.p.) was determined as 6.68 s.

For the compound `CC1=CC(=O)CC(c2ccsc2)N1` (racemic) [Example 30, (±)-6-Methyl-2-(3-thienyl)-2,3-dihydro-4(1H)-pyridinone], the “Inhibition (%)” value in experiment [1] (dose 20 mg/kg) worked out at 51%.

Take `CC1=CC(=O)CC(c2cccnc2)N1` (racemic) [Example 36, (±)-6-Methyl-2-(3-pyridyl)-2,3-dihydro-4(1H)-pyridinone]: in experiment [2], the “T2 − T1 (s), difference between the recognition times of the 2 encounters” value is -36 s.

Turning to `C[C@@H]1C[C@H](O)C[C@H](c2ccccc2)N1.Cl` (relative stereo) [Example 21, (2R*,4S*,6R*)-2-Phenyl-6-methyl-4-piperidinol hydrochloride], the “T2 − T1 (s), difference between the recognition times of the 2 encounters” value in experiment [2] was -33 s.

As for `C[C@@H]1C[C@H](O)C[C@H](c2ccccc2)N1.O=C(O)C(=O)O` (relative stereo) [Example 22, (2R*,4S*,6R*)-2-Phenyl-6-methyl-4-piperidinol oxalate], the “Delta (s), difference between exploration times for new and familiar object” value in experiment [3] (dose 0.3 mg/kg, i.p.) is on record as 9.98 s; in experiment [3] (dose 3 mg/kg, p.o.), 5.93 s.

As for `CC1=CC(=O)C[C@@H](c2cccc(Cl)c2)N1` [Example 18, (2S)-2-(3-Chlorophenyl)-6-methyl-2,3-dihydro-4-(1H)-pyridinone], the “Delta (s), difference between exploration times for new and familiar object” value in experiment [3] (dose 1 mg/kg, p.o.) is given as 6.2 s.

Values taken from US6451789B1, “1-aza-2-alky-6-aryl-cycloalkanes” (Les Labortoires Servier, priority 1999, dated 2002).
